Assay results from ChEMBL document CHEMBL1201862, “PubChem BioAssay data set” (2004).
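Five compound concentrations were applied to cells in 96-well plates for 48 hours; endpoints were derived by simple linear interpolation of the resulting dose-response curve. GI50: concentration for 50% inhibition of growth.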 The source made the active and inactive calls. Rule as the data show it: active = GI50 up to about 1.1 µM and inactive = higher.

How the values were obtained:
Assay in all cases: growth of human tumour cells (NCI), 48 h
TK-10 = system: TK-10
UO-31 = system: UO-31
NCI-H226 = system: NCI-H226
A498 = system: A498
OVCAR-3 = system: OVCAR-3
M14 = system: M14
HCC 2998 = system: HCC 2998
HL-60 = system: HL-60
SK-MEL-28 = system: SK-MEL-28
LXFL 529 = system: LXFL 529
UACC-257 = system: UACC-257
DMS-273 = system: DMS-273
NCI-H460 = system: NCI-H460
DLD-1 = system: DLD-1
SN12C = system: SN12C
MOLT-4 = system: MOLT-4
U-251 = system: U-251
LOX IMVI = system: LOX IMVI
SF-295 = system: SF-295
UACC-62 = system: UACC-62
EKVX = system: EKVX
COLO 205 = system: COLO 205
RPMI-8226 = system: RPMI-8226
RXF 393 = system: RXF 393
NCI-H23 = system: NCI-H23
KM-20L2 = system: KM-20L2
XF498 = system: XF498
ACHN = system: ACHN
OVCAR-4 = system: OVCAR-4
HOP-62 = system: HOP-62
SF-539 = system: SF-539
HT-29 = system: HT-29
SK-MEL-5 = system: SK-MEL-5
HCT-15 = system: HCT-15
786-0 = system: 786-0
SNB-19 = system: SNB-19
SR = system: SR
Malme-3M = system: Malme-3M
K562 = system: K562
DMS-114 = system: DMS-114
SW-620 = system: SW-620
M19-MEL = system: M19-MEL
CCRF-CEM = system: CCRF-CEM
HCT-116 = system: HCT-116
SNB-75 = system: SNB-75
A549 = system: A549
SK-MEL-2 = system: SK-MEL-2
SF-268 = system: SF-268
IGROV-1 = system: IGROV-1
OVCAR-8 = system: OVCAR-8

For `COc1ccc(-c2cc(O)c3cc4c(cc3n2)OCO4)cc1`, the GI50 (TK-10) was > 100 µM (inactive), the GI50 (UO-31) was > 100 µM (inactive) and the GI50 (NCI-H226) was 29 µM (inactive). The GI50 (A498) was > 100 µM (inactive), the GI50 (OVCAR-3) was > 100 µM (inactive) and the GI50 (M14) was > 100 µM (inactive). The GI50 (HCC 2998) was > 100 µM (inactive), the GI50 (HL-60) was > 100 µM (inactive) and the GI50 (SK-MEL-28) was > 100 µM (inactive). For the same molecule, the GI50 (LXFL 529) was > 100 µM (inactive), the GI50 (UACC-257) was > 100 µM (inactive) and the GI50 (DMS-273) was > 100 µM (inactive). The GI50 (NCI-H460) was > 100 µM (inactive), the GI50 (DLD-1) was > 100 µM (inactive) and the GI50 (SN12C) was > 100 µM (inactive). The GI50 (MOLT-4) was > 100 µM (inactive), the GI50 (U-251) was > 100 µM (inactive) and the GI50 (LOX IMVI) was > 100 µM (inactive). For the same molecule, the GI50 (SF-295) was 63.4 µM (inactive), the GI50 (UACC-62) was > 100 µM (inactive) and the GI50 (EKVX) was 19.9 µM (inactive). For the same molecule, the GI50 (COLO 205) was > 100 µM (inactive), the GI50 (RPMI-8226) was > 100 µM (inactive) and the GI50 (RXF 393) was 38.4 µM (inactive). For the same molecule, the GI50 (NCI-H23) was > 100 µM (inactive), the GI50 (KM-20L2) was > 100 µM (inactive) and the GI50 (XF498) was > 100 µM (inactive). The GI50 (ACHN) was > 100 µM (inactive), the GI50 (OVCAR-4) was > 100 µM (inactive) and the GI50 (HOP-62) was 61 µM (inactive). The GI50 (SF-539) was > 100 µM (inactive), the GI50 (HT-29) was > 100 µM (inactive) and the GI50 (SK-MEL-5) was > 100 µM (inactive). For the same molecule, the GI50 (HCT-15) was > 100 µM, the GI50 (786-0) was 73.1 µM (inactive) and the GI50 (SNB-19) was 55.5 µM (inactive). For the same molecule, the GI50 (SR) was > 100 µM (inactive), the GI50 (Malme-3M) was > 100 µM (inactive) and the GI50 (K562) was > 100 µM (inactive). The GI50 (DMS-114) was > 100 µM (inactive), the GI50 (SW-620) was > 100 µM (inactive) and the GI50 (M19-MEL) was > 100 µM (inactive). For the same molecule, the GI50 (CCRF-CEM) was > 100 µM (inactive), the GI50 (HCT-116) was > 100 µM (inactive) and the GI50 (SNB-75) was 29.8 µM (inactive). The GI50 (A549) was > 100 µM (inactive), the GI50 (SK-MEL-2) was > 100 µM (inactive) and the GI50 (SF-268) was > 100 µM (inactive). For the same molecule, the GI50 (IGROV-1) was > 100 µM (inactive) and the GI50 (OVCAR-8) was > 100 µM (inactive).
